Experimental data: patent US20210100905A1, “APPLICATION OF COMPOUND OR TRADITIONAL CHINESE MEDICINE EXTRACT IN PREPARATION OF NUCLEIC ACID DELIVERY AGENT, AND RELATED PRODUCTS” (INSTITUTE OF BASIC MEDICAL SCIENCES CHINESE ACADEMY OF …, priority 2018, published 2021)

Assays:
[1] = system: A549 cells; test: Digital PCR (ddPCR) detection of the efficiency of nucleic acid delivery by lipid; assay type: cell-based, human; conditions: boiling or reverse evaporation method; samples after 6 hours (No. 39: reverse evaporation, 6 and 12 hours)
Source text: 2.1 Experimental materials: A549 cells were purchased from the Cell Center of the Institute of Basic Medical Sciences, Chinese Academy of Medical Sciences, TRIzol lysis buffer was purchased from Sigma, High capacity cRNA Reverse Transcription Kit was purchased from ABI, USA, and the digital PCR related reagents were purchased from Bio-Rad USA.
(§1) 2.2 Experimental method: the total cellular RNA was collected and extracted by TRIzol lysis buffer according to the above methods, and reverse transcribed to cDNA using High capacity cRNA Reverse Transcription Kit, and the cDNA from different groups was subject to digital PCR reaction. Refering to the QX200 Droplet Reader and QuantaSoft Software manual for the protocols, the results were analyzed using QuantaSoft software.
as §1, with “method:” for “method: the”, “total” for “total cellular”, “method,” for “methods,”, “subjected” for “subject”, “Refer” for “Refering”, “protocols;” for “protocols,”
(§2) 2.2 Experimental method: Total RNA was collected and extracted by TRIzol lysis buffer according to the above method, and reverse transcribed to cDNA using TaqMan™ MicroRNA Reverse Transcription KitHigh, and the cDNA from different groups was subjected to digital PCR reaction. Refer to the QX200 Droplet Reader and QuantaSoft Software manual for the protocols; the results were analyzed using QuantaSoft software.
as §2, with “reversed” for “reverse transcribed”, “High capacity cRNA” for “TaqMan™ MicroRNA”, “Kit,” for “KitHigh,”

[2] = system: A549 cell (human lung adenocarcinoma cell); test: In vitro delivery of lipid nucleic acid mixture, RT-qPCR of intracellular small RNA; assay type: cell-based; conditions: single lipid prepared by boiling or reverse evaporation method; RNA 100 nM; FIGS. 76, 91, 96, 99, 104, 106, 107
Description: 3.1 NCI-N87 cell (gastric cancer cell), MRC-5 cell (lung fibroblast), A549 cell (lung cancer cell) were cultured to logarithmic growth phase, and then plated to a six-well plate at cell density of 1×10^6/2 mL medium/well; MRC-5 cell was cultured in Eagle's MEM medium (MEM, Gibco); A549 cell was cultured in Ham's F-12 medium (HyClone); NCI-N87 cell was cultured in RPMI-1640 medium (HyClone); followed by incubation overnight at 37° C., and the follow-up experiments were performed after the cells were attached to the walls.
3.3 After co-incubation with the small RNA for 3 hours, the cells were washed 2-3 times with PBS. The cells were harvested with TRIzol lysis buffer, and the total RNA was extracted. The abundance of small RNA that entered cells was detected by RT-qPCR, and the localization of RNA was detected by fluorescence in situ hybridization; protocols of each detection method were as follows:
1) The sRNA was reverse transcribed to cDNA: Reverse Transcription Kit (High-Capacity cDNA Reverse Transcription Kits, Applied Biosystems, cat. No. 4368813) was used to reverse transcribe sRNA into cDNA by stem-loop method, and the reverse transcription system was as follows: RNA template (150 ng/μl) 10 μl, 10×RT buffer, 2.0 μl, 25× dNTP Mix (100 mM) 0.8 μl, U6 RT stem-loop primer 2.0 μl, HJT-sRNA-RT-m7 stem-loop primer 2.0 μl, MultiScribe™ reverse transcriptase 1.0 μl, RNase inhibitor 1.0 μl, nuclease-free H2O 1.2 μl, loaded into a PCR reactor after brief centrifugation, the reaction conditions were as follows: (1) 25° C., 10 min; (2) 37° C., 120 min; (3) 85° C., 5 min; (4) 4° C., termination of the reaction. 20 μl RNase-free ddH2O was added to make up the final volume to 40 μl after the reaction. The stem-loop primer used in the reverse transcription process was synthesized by Beijing Tsingke Biotechnology Co., Ltd.
2) Quantitative PCR amplification reaction: the qPCR reaction system has a total volume of 10 μl, containing: 5 μL 2×SYBR Green Master Mix, 0.5 μl forward primer ([…]), 0.5 μl reverse primer (10 μM), 1 μl cDNA by reverse transcription, 3 RNase-free dH2O. LightCycler 480 fluorescence quantitative PCR instrument was used, and the PCR reaction conditions were: 95° C. for 5 min for pre-denaturation, followed by PCR amplification cycle: (1) 95° C., 10 s; (2) 55° C., 10 s; (3) 72° C. , 20 s; a total of 40 cycles; 40° C. for 10 s in the end to cool down. Both the forward and reverse primers of the amplification reaction were designed and synthesized by Beijing Tsingke Biotechnology Co., Ltd.
3) The relative expression level was calculated by 2-ΔCt method.
100 μl lipid in diethyl ether solution was prepared, and grouped according to the lipid numbers shown in Table 1 (the lipid concentrations are shown in the table below). To the lipid solution was added 20 μl nucleic acid solution (HJT sRNA or siRNA) at the volume ratio of 5:1, and sonicated for after 3 min. The diethyl ether was removed by evaporation at 55° C., and then 100 μl DEPC water was added for hydration to give nucleic acid lipid mixture.
100 μL of the nucleic acid solution (HJT sRNA or siRNA) was added to 2-5 μL of the lipid in chloroform (the concentration was shown in Table 1), mixed, and heated at 80-100° C. for 15-30 min to give nucleic acid lipid mixture.
3.1.1 MRC-5 cell (pulmonary embryonic fibroblast), A549 cell (human lung adenocarcinoma cell), Caco-2 cell (human colon adenocarcinoma cell) (purchased from the Cell Resource Center of the Institute of Basic Medical Sciences, Chinese Academy of Medical Sciences) were cultured to logarithmic growth phase, then plated into 12-well plates at a cell density of 6×10^5/1 mL medium/well; MRC-5 and Caco-2 cells were cultured in Eagle's MEM medium (MEM, Gibco); A549 cells were cultured in Ham's F-12 medium (HyClone); followed by incubation overnight at 37° C., and the follow-up experiments were performed after the cells were attached to the walls. […]

CCCCCC/C=C\CCCCCCCCCC(=O)O[C@H](COC(=O)CCCCCCC/C=C\CCCCCC)COP(=O)(O)OCCN [No. 39, (2-aminoethoxy) [(2R)-3-[(9Z)-hexadec-9-enoyloxy]-2-[(11Z)-octadec-11-enoyloxy]propoxy] phosphinic acid]
delivery of HJT-sRNA-m7 dsRNA into A549 cells (ddPCR) [1]: could effectively deliver HJT-sRNA-m7 dsRNA into A549 cells | delivery of HJT-sRNA-m7 double-stranded RNA into A549 cells (real-time PCR) [2]: delivered double-stranded RNA into A549 cells
